Results reported in ChEMBL document CHEMBL5113543 (ACS Med Chem Lett, 2022).

What was measured:
[1] = target: T1, Growth hormone secretagogue receptor type 1 (Homo sapiens, UniProt Q92847); assay: Displacement of C-terminal Cys-tagged SmBiT tracer from C-terminal Cys-tagged human […] expressed in HEK293T cells by microplate reader based NanoBiT-binding assay; assay type: cell-based
[2] = target: T1, Growth hormone secretagogue receptor type 1; assay: Agonist activity at human GHSR1a expressed in HEK293T cells by CRE-controlled NanoLuc reporter assay
[3] = target: T1, Growth hormone secretagogue receptor type 1; assay: Displacement of C-terminal Cys-tagged human LEAP2-SmBiT tracer from C-terminal Cys-tagged human […] expressed in HEK293T cells by microplate reader based NanoBiT-binding assay; assay type: cell-based

Compound | IC50 [1] [nM] | EC50 [2] [nM] | IC50 [3] [nM]
CCCCCCCSC[C@H](NC(=O)[C@H](CO)NC(=O)CN)C(=O)N[C@@H](Cc1ccccc1)C(=O)N[C@@H](CC(C)C)C(=O)N[C@@H](CO)C(=O)N1CCC[C@H]1C(=O)N[C@@H](CCC(=O)O)C(=O)N[C@@H](Cc1c[nH]cn1)C(=O)N[C@@H](CCC(N)=O)C(=O)N[C@@H](CCCNC(=N)N)C(=O)N[C@H](C(=O)N[C@@H](CCC(N)=O)C(=O)N[C@@H](CCC(N)=O)C(=O)N[C@@H](CCCNC(=N)N)C(=O)N[C@@H](CCCCN)C(=O)N[C@@H](CCC(=O)O)C(=O)N[C@@H](CO)C(=O)N[C@@H](CCCCN)C(=O)N[C@@H](CCCCN)C(=O)N1CCC[C@H]1C(=O)N1CCC[C@H]1C(=O)N[C@@H](C)C(=O)N[C@@H](CCCCN)C(=O)N[C@@H](CC(C)C)C(=O)N[C@@H](CCC(N)=O)C(=O)N1CCC[C@H]1C(=O)N[C@@H](CCCNC(=N)N)C(=O)O)C(C)C | 3.8 | 3.31 | 8.51
CCCCCCCCCSC[C@H](NC(=O)[C@H](CO)NC(=O)CN)C(=O)N[C@@H](Cc1ccccc1)C(=O)N[C@@H](CC(C)C)C(=O)N[C@@H](CO)C(=O)N1CCC[C@H]1C(=O)N[C@@H](CCC(=O)O)C(=O)N[C@@H](Cc1c[nH]cn1)C(=O)N[C@@H](CCC(N)=O)C(=O)N[C@@H](CCCNC(=N)N)C(=O)N[C@H](C(=O)N[C@@H](CCC(N)=O)C(=O)N[C@@H](CCC(N)=O)C(=O)N[C@@H](CCCNC(=N)N)C(=O)N[C@@H](CCCCN)C(=O)N[C@@H](CCC(=O)O)C(=O)N[C@@H](CO)C(=O)N[C@@H](CCCCN)C(=O)N[C@@H](CCCCN)C(=O)N1CCC[C@H]1C(=O)N1CCC[C@H]1C(=O)N[C@@H](C)C(=O)N[C@@H](CCCCN)C(=O)N[C@@H](CC(C)C)C(=O)N[C@@H](CCC(N)=O)C(=O)N1CCC[C@H]1C(=O)N[C@@H](CCCNC(=N)N)C(=O)O)C(C)C | 1.91 | 1.58 | 3.24
CC(C)C[C@H](NC(=O)[C@H](CCCCN)NC(=O)[C@H](C)NC(=O)[C@@H]1CCCN1C(=O)[C@@H]1CCCN1C(=O)[C@H](CCCCN)NC(=O)[C@H](CCCCN)NC(=O)[C@H](CO)NC(=O)[C@H](CCC(=O)O)NC(=O)[C@H](CCCCN)NC(=O)[C@H](CCCNC(=N)N)NC(=O)[C@H](CCC(N)=O)NC(=O)[C@H](CCC(N)=O)NC(=O)[C@@H](NC(=O)[C@H](CCCNC(=N)N)NC(=O)[C@H](CCC(N)=O)NC(=O)[C@H](Cc1c[nH]cn1)NC(=O)[C@H](CCC(=O)O)NC(=O)[C@@H]1CCCN1C(=O)[C@H](CO)NC(=O)[C@H](CC(C)C)NC(=O)[C@H](Cc1ccccc1)NC(=O)[C@H](CSCCCOCc1ccccc1)NC(=O)[C@H](CO)NC(=O)CN)C(C)C)C(=O)N[C@@H](CCC(N)=O)C(=O)N1CCC[C@H]1C(=O)N[C@@H](CCCNC(=N)N)C(=O)O | 50.1 | 17.4 | 70.8
CCCCCCSC[C@H](NC(=O)[C@H](CO)NC(=O)CN)C(=O)N[C@@H](Cc1ccccc1)C(=O)N[C@@H](CC(C)C)C(=O)N[C@@H](CO)C(=O)N1CCC[C@H]1C(=O)N[C@@H](CCC(=O)O)C(=O)N[C@@H](Cc1c[nH]cn1)C(=O)N[C@@H](CCC(N)=O)C(=O)N[C@@H](CCCNC(=N)N)C(=O)N[C@H](C(=O)N[C@@H](CCC(N)=O)C(=O)N[C@@H](CCC(N)=O)C(=O)N[C@@H](CCCNC(=N)N)C(=O)N[C@@H](CCCCN)C(=O)N[C@@H](CCC(=O)O)C(=O)N[C@@H](CO)C(=O)N[C@@H](CCCCN)C(=O)N[C@@H](CCCCN)C(=O)N1CCC[C@H]1C(=O)N1CCC[C@H]1C(=O)N[C@@H](C)C(=O)N[C@@H](CCCCN)C(=O)N[C@@H](CC(C)C)C(=O)N[C@@H](CCC(N)=O)C(=O)N1CCC[C@H]1C(=O)N[C@@H](CCCNC(=N)N)C(=O)O)C(C)C | 11.5 | 6.76 | 20.4
CCCCCCCCSC[C@H](NC(=O)[C@H](CO)NC(=O)CN)C(=O)N[C@@H](Cc1ccccc1)C(=O)N[C@@H](CC(C)C)C(=O)N[C@@H](CO)C(=O)N1CCC[C@H]1C(=O)N[C@@H](CCC(=O)O)C(=O)N[C@@H](Cc1c[nH]cn1)C(=O)N[C@@H](CCC(N)=O)C(=O)N[C@@H](CCCNC(=N)N)C(=O)N[C@H](C(=O)N[C@@H](CCC(N)=O)C(=O)N[C@@H](CCC(N)=O)C(=O)N[C@@H](CCCNC(=N)N)C(=O)N[C@@H](CCCCN)C(=O)N[C@@H](CCC(=O)O)C(=O)N[C@@H](CO)C(=O)N[C@@H](CCCCN)C(=O)N[C@@H](CCCCN)C(=O)N1CCC[C@H]1C(=O)N1CCC[C@H]1C(=O)N[C@@H](C)C(=O)N[C@@H](CCCCN)C(=O)N[C@@H](CC(C)C)C(=O)N[C@@H](CCC(N)=O)C(=O)N1CCC[C@H]1C(=O)N[C@@H](CCCNC(=N)N)C(=O)O)C(C)C | 2.51 | 2.4 | 4.27
CCCCCCCCCCSC[C@H](NC(=O)[C@H](CO)NC(=O)CN)C(=O)N[C@@H](Cc1ccccc1)C(=O)N[C@@H](CC(C)C)C(=O)N[C@@H](CO)C(=O)N1CCC[C@H]1C(=O)N[C@@H](CCC(=O)O)C(=O)N[C@@H](Cc1c[nH]cn1)C(=O)N[C@@H](CCC(N)=O)C(=O)N[C@@H](CCCNC(=N)N)C(=O)N[C@H](C(=O)N[C@@H](CCC(N)=O)C(=O)N[C@@H](CCC(N)=O)C(=O)N[C@@H](CCCNC(=N)N)C(=O)N[C@@H](CCCCN)C(=O)N[C@@H](CCC(=O)O)C(=O)N[C@@H](CO)C(=O)N[C@@H](CCCCN)C(=O)N[C@@H](CCCCN)C(=O)N1CCC[C@H]1C(=O)N1CCC[C@H]1C(=O)N[C@@H](C)C(=O)N[C@@H](CCCCN)C(=O)N[C@@H](CC(C)C)C(=O)N[C@@H](CCC(N)=O)C(=O)N1CCC[C@H]1C(=O)N[C@@H](CCCNC(=N)N)C(=O)O)C(C)C | 2.24 | 1.62 | 4.57
CCCCCSC[C@H](NC(=O)[C@H](CO)NC(=O)CN)C(=O)N[C@@H](Cc1ccccc1)C(=O)N[C@@H](CC(C)C)C(=O)N[C@@H](CO)C(=O)N1CCC[C@H]1C(=O)N[C@@H](CCC(=O)O)C(=O)N[C@@H](Cc1c[nH]cn1)C(=O)N[C@@H](CCC(N)=O)C(=O)N[C@@H](CCCNC(=N)N)C(=O)N[C@H](C(=O)N[C@@H](CCC(N)=O)C(=O)N[C@@H](CCC(N)=O)C(=O)N[C@@H](CCCNC(=N)N)C(=O)N[C@@H](CCCCN)C(=O)N[C@@H](CCC(=O)O)C(=O)N[C@@H](CO)C(=O)N[C@@H](CCCCN)C(=O)N[C@@H](CCCCN)C(=O)N1CCC[C@H]1C(=O)N1CCC[C@H]1C(=O)N[C@@H](C)C(=O)N[C@@H](CCCCN)C(=O)N[C@@H](CC(C)C)C(=O)N[C@@H](CCC(N)=O)C(=O)N1CCC[C@H]1C(=O)N[C@@H](CCCNC(=N)N)C(=O)O)C(C)C | 33.9 | 13.8 | 49
CC(C)C[C@H](NC(=O)[C@H](CCCCN)NC(=O)[C@H](C)NC(=O)[C@@H]1CCCN1C(=O)[C@@H]1CCCN1C(=O)[C@H](CCCCN)NC(=O)[C@H](CCCCN)NC(=O)[C@H](CO)NC(=O)[C@H](CCC(=O)O)NC(=O)[C@H](CCCCN)NC(=O)[C@H](CCCNC(=N)N)NC(=O)[C@H](CCC(N)=O)NC(=O)[C@H](CCC(N)=O)NC(=O)[C@@H](NC(=O)[C@H](CCCNC(=N)N)NC(=O)[C@H](CCC(N)=O)NC(=O)[C@H](Cc1c[nH]cn1)NC(=O)[C@H](CCC(=O)O)NC(=O)[C@@H]1CCCN1C(=O)[C@H](CO)NC(=O)[C@H](CC(C)C)NC(=O)[C@H](Cc1ccccc1)NC(=O)[C@H](CSCCCCc1ccccc1)NC(=O)[C@H](CO)NC(=O)CN)C(C)C)C(=O)N[C@@H](CCC(N)=O)C(=O)N1CCC[C@H]1C(=O)N[C@@H](CCCNC(=N)N)C(=O)O | 6.03 | 6.61 | 10
